Results taken from US6143790A, “L-N^6 -(1-iminoethyl)lysine derivatives useful as nitric oxide synthase inhibitors” (G.D. Searle & Co., priority 1996, dated 2000).
Where a name gives a salt, the structure may show the parent alone. Blank lines part the entries; values can stand above or below the compound they belong to.

Tests used:
[1] = test system: iNOS; assay: % inhibition of iNOS at 100 μM; assay type: biochemical
Protocol: (§1) Citrulline Assay for Nitric Oxide Synthase Nitric oxide synthase activity was measured by monitoring the conversion of L-[2,3-3H]-arginine to L-[2,3-3H]-citrulline (1,2). Human inducible NOS (hiNOS), human endothelial constitutive NOS (hecNOS) and human neuronal constitutive NOS (hncNOS) were each cloned from RNA extracted from human tissue. The recombinant enzymes were expressed in insect cells using a baculovirus vector. Enzyme activity was isolated from cell extracts and partially purified by DEAE-Sepharose chromatography (2). Mouse inducible NOS (miNOS) was prepared from an extract of LPS-treated mouse RAW 264.7 cells and rat brain constitutive NOS (rcNOS) was prepared from an extract of rat cerebellum. Both preparations were partially purified by DEAE-Sepharose chromatography (2). Enzyme and inhibitors were added to give a volume of 50 μL in 50 mM Tris (pH 7.6) and the reaction initiated by the addition of 50 μL of a solution containing 50 mM Tris (pH 7.6), 2.0 mg/mL bovine serum albumin, 2.0 mM DTT, 4.0 mM CaCl2, 20 μM FAD, 100 μM tetrahydrobiopterin, 0.4-2.0 mM NADPH and 60 μM L-arginine containing 0.9 μCi of L-[2,3-3H]-arginine. For constitutive NOS, calmodulin was included at a final concentration of 40-100 nM. Following incubation at 37° C. for 15 minutes, the reaction was terminated by addition of 300 μL cold buffer containing 10 mM EGTA, 100 mM HEPES (pH5.5) and 1.0 mM L-citrulline. The [3H]-citrulline was separated by chromatography on Dowex 50W X-8 cation exchange resin and radioactivity quantified with a liquid scintillation counter.

[2] = biological target: T1, Human inducible NOS (hiNOS) (Homo sapiens, UniProt P35228); assay: Citrulline Assay for Nitric Oxide Synthase, hiNOS; assay type: biochemical
T1 construct: made in house; host or cells: insect cells, baculovirus vector
Protocol: (§2) Citrulline Assay for Nitric Oxide Synthase
as §1, with “Nitric” for “Citrulline Assay for Nitric Oxide Synthase Nitric”

[3] = biological target: T2, RAW cell i-NOS (Mus musculus, UniProt P29477); assay: Raw Cell Nitrite Assay; assay type: cell-based; conditions: RAW 264.7 cells, LPS induced, L-arginine 30 μM
T2 construct: grown overnight (17 h) in the presence of LPS to induce NOS; endogenous in cells; host or cells: RAW 264.7 cells, LPS-induced
Protocol: RAW 264.7 cells are plated to confluency on a 96-well tissue culture plate grown overnight (17 h) in the presence of LPS to induce NOS. A row of 3-6 wells are left untreated and served as controls for subtraction of nonspecific background. The media is removed from each well and the cells are washed twice with Krebs-Ringers-Hepes (25 mM, pH 7.4) with 2 mg/ml glucose. The cells are then placed on ice and incubated with 50 μL of buffer containing L-arginine (30 μM) +/-inhibitors for 1 h. The assay is initiated by warming the plate to 37° C. in a water bath for 1 h. Production of nitrite by intracellular iNOS is linear with time. To terminate the cellular assay, the plate of cells is placed on ice and the nitrite-containing buffer removed and analyzed for nitrite using a previously published fluorescent determination for nitrite. All values are the average of triplicate wells and are compared to a background-subtracted induced set of cells (100% value).

[4] = biological target: T3, human endothelial constitutive NOS (hecNOS) (Homo sapiens, UniProt P29474); assay: Citrulline Assay for Nitric Oxide Synthase, hecNOS; assay type: biochemical
T3 construct: made in house; host or cells: insect cells, baculovirus vector
Protocol: as §2
as §1, with “Nitric” for “Citrulline Assay for Nitric Oxide Synthase Nitric”

[5] = biological target: T4, human neuronal constitutive NOS (hncNOS) (Homo sapiens, UniProt P29475); assay: Citrulline Assay for Nitric Oxide Synthase, hncNOS; assay type: biochemical
T4 construct: made in house; host or cells: insect cells, baculovirus vector
Protocol: as §2
as §1, with “Nitric” for “Citrulline Assay for Nitric Oxide Synthase Nitric”

[6] = test system: constitutive and the inducible NO synthase; conditions: constitutive vs inducible NO synthase; cited from earlier work

Compound: CC(=N)NCCCC(C)N (stereo not drawn) [Example 4, Ni-(1-iminoethyl)-1,4-pentanediamine, dihydrochloride]
% inhibiton iNOS at 100 μM [1]: 33%

Compound: COC(=O)CC(N)c1ccc(NC(C)=N)cc1 (stereo not drawn) [Example 10f]
% inhibiton iNOS at 100 μM [1]: 7.7%

IC50 [2]: 61 µM | IC50 [3]: 300 µM | IC50 [4]: 1990 µM | IC50 [5]: 898 µM
Compound: CC(=N)NCCCC[C@H](N)CC(=O)O [Example 1, 3S-amino-7-[(1-iminoethyl)amino]heptanoic Acid]

Compound: CC(=N)NCCCC[C@H](N)C(C)=O [Example 14, N-(5S-amino-6-oxoheptyl)ethanimidamide, dihydrochloride]
% inhibiton iNOS at 100 μM (symbol) [1]: * (At 100 μM dose, response was not seen.)

Compound: CC(=N)NCCCC[C@H](N)CO [Example 48, N-(5S-amino-6-hydroxyhexyl)ethanimidamide]
% inhibiton iNOS at 100 μM [1]: 40.6%

Compound: CCOC(=O)C[C@@H](N)CCCNC(C)=N [Example 2d]
% inhibiton iNOS at 100 μM [1]: 5%

Compound: CC(=N)NCCCC[C@H](N)C(O)CO (single isomer, unassigned) [Example 3A, N-(5S-amino-6,7-dihydroxyheptyl)ethanimidamide, dihydrochloride]
% inhibiton iNOS at 100 μM [1]: 53.4%

IC50 [2]: 76.8 µM | IC50 [3]: > 100 µM | IC50 [4]: 5430 µM | IC50 [5]: 670 µM
Compound: CC(=N)NCCCC[C@H](N)C(O)C(C)O (single isomer, unassigned) [Example 16B, N-(5S-amino-6,7-dihydroxyoctyl) ethanimidamide, dihydrochloride hydrate]

Compound: CC(=N)NCCC[C@H](N)CC(=O)O [Example 2, 3S-amino-6-[(1-iminoethyl)amino]hexanoic Acid]
% inhibiton iNOS at 100 μM (symbol) [1]: * (At 100 μM dose, response was not seen.)

Compound: CC(=N)NCCCC[C@H](N)C(O)c1ccccc1 (single isomer, unassigned) [Example 11A, α-[1-amino-5-[(1-iminoethyl)amino]pentyl]benzenemethanol hydrochloride dihydrate]
% inhibiton iNOS at 100 μM (symbol) [1]: * (At 100 μM dose, response was not seen.)

Compound: CC(=N)NCCCC[C@H](N)C(O)c1ccccc1 (single isomer, unassigned) [Example 11B, α-[1-amino-5-[(1-iminoethyl)amino]pentyl]benzenemethanol hydrochloride dihydrate]
% inhibiton iNOS at 100 μM [1]: 4.6%

Compound: CC(=N)NCCCC[C@H](N)C(=O)c1cccs1 [Example 12, N-[5S-amino-6-oxo-6-(2-thienyl)hexyl]ethanimidamide, hydrate]
% inhibiton iNOS at 100 μM (symbol) [1]: * (At 100 μM dose, response was not seen.)

Compound: CC(=N)NCCCC[C@H](N)c1ncc(C)o1 [Example 49, N-[5-amino-5-(5-methyloxazol-2-yl)pentyl]ethanimidamide, hydrochloride hydrate]
% inhibiton iNOS at 100 μM [1]: 19.4%

Compound: CC(=N)NCCCC[C@H](N)C(C)O (single isomer, unassigned) [Example 40A, N-(5S-amino-6-hydroxyheptyl)ethanimidamide, dihydrochloride dihydrate]
% inhibiton iNOS at 100 μM [1]: 32.6%

Compound: CC(=N)NCCCC[C@H](N)c1nnn[nH]1 [Example 41, N-[5S-amino-5-(1H-tetrazol-5-yl)pentyl]ethanimidamide, dihydrochloride]
% inhibiton iNOS at 100 μM [1]: 28.5%

Compound: CNC(=N)NCCC[C@H](N)C(=O)O [L-NMMA, L-N-monomethyl-arginine]
selectivity as NO synthase inhibitor [6]: non-selective

Compound: CC(=N)NCCCC[C@H](N)C(C)O (stereo partly drawn) [Example 40B, N-(5S-amino-6-hydroxyheptyl)ethanimidamide, dihydrochloride dihydrate]
% inhibiton iNOS at 100 μM [1]: 14.5%

IC50 [2]: 9.3 µM | IC50 [3]: 57.3 µM | IC50 [4]: 2350 µM | IC50 [5]: 99.6 µM
Compound: CC(=N)NCCCC[C@H](N)C(C)(O)CO (single isomer, unassigned) [Example 15A, N-(5S-amino-6,7-dihydroxy-6-methylheptyl)ethanimidamide, hydrochloride dihydrate]

IC50 [2]: 12.3 µM | IC50 [3]: 80 µM | IC50 [5]: 150 µM
Compound: CC(=N)NCCCC[C@H](N)C(O)CO (single isomer, unassigned) [Example 3B, N-(5S-amino-6,7-dihydroxyheptyl)ethanimidamide, dihydrochloride]

Compound: CC(=N)NCCCC[C@H](N)C(O)COC(C)=O (stereo partly drawn) [Example 19, N-(5S-amino-6-hydroxy-7-acetoxyheptyl)ethanimidamide, hydrochloride monohydrate]
% inhibiton iNOS at 100 μM [1]: 54%

IC50 [2]: 187 µM | IC50 [4]: 6590 µM | IC50 [5]: 441 µM
Compound: CC(=N)NCCCC[C@H](N)C(C)(O)CO (single isomer, unassigned) [Example 15B, N-(5S-amino-6,7-dihydroxy-6-methylheptyl)ethanimidamide, hydrochloride dihydrate]

Compound: CC(=N)NCCCC[C@H](N)C(COC(C)=O)OC(C)=O (stereo partly drawn) [Example 18, N-(6,7-diacetyloxy-5S-aminoheptyl)ethanimidamide, hydrochloride monohydrate]
% inhibiton iNOS at 100 μM [1]: 7%

Compound: CCOC(=O)C[C@@H](N)CCCCNC(C)=N [Example 1d, Ethyl 3S-amino-7-[(1-iminoethyl)amino]heptanoate]
% inhibiton iNOS at 100 μM [1]: 35%

Compound: CCC(N)CCCCNC(C)=N (stereo not drawn) [Example 5, N1-(1-iminoethyl) -1,5-heptanediamine]
% inhibiton iNOS at 100 μM [1]: 27%

Compound: CC(=N)Nc1ccc(C(N)CC(=O)O)cc1.Cl.Cl.O (stereo not drawn) [Example 10, β-amino-4-[(1-iminoethyl)amino]benzenepropanoic acid, dihydrochloride hydrate]
% inhibiton iNOS at 100 μM [1]: 3.4%

Compound: CC(=N)NCCCC[C@H](N)C(=O)NO [Example 50, 2S-amino-N-hydroxy-6-[(1-iminoethyl)amino]hexanamide, hydrochloride]
% inhibiton iNOS at 100 μM [1]: 40.6%
